Results taken from patent publication US11691968B2, “Compound having KDM5 inhibitory activity and pharmaceutical use thereof” (ONO PHARMACEUTICAL CO., LTD., priority 2020, dated 2023).

Assays:
KDM5A = KDM5A (Homo sapiens (Human), UniProt P29375); experiment: Biochemical KDM5A Inhibition Assay (HTRF); settings: KDM5A protein, biotin-labelled H3K4-Me3 substrate
Procedure: Biochemical KDM5A Inhibition Assay
Using 384-well white Greiner784075 (Greiner), representative compounds were characterized for their inhibition of KDM5A using HTRF® technology (Cisbio Bioassays). Briefly, the test compounds, reference compounds, and DMSO control (typical compound concentration range 1 μM-[…], final assay concentration (FAC*) of DMSO 0.5%) were added to 384-well plate by the Echo® acoustic dispensing platform (Labcyte). Five (5) 1l of KDM5A protein (produced by the method described in Nat Chem Biol 12, 531-538 (2016)). (5-20 nM FAC*) in assay buffer (50 mM MES, 50 mM NaCl, 1 mM TCEP, 0.01% v/v Tween 20, 0.03% BSA, pH 6.5) was added to wells and plates were incubated for 10-20 minutes at 25 degrees celsius. Then, 5 μl of alpha-ketoglutaric acid (100 μM FAC*), biotin-labelled H3K4-Me3 substrate (Anaspec Cat #AS-64357-1; 200 nM FAC*), Fe(II)SO4 (100 μM FAC*) and ascorbic acid (2 mM FAC*) in assay buffer was added to wells and plates were incubated for 20 minutes at room temperature. The reaction was stopped with the addition of 10 μl of anti-H3K4-Me2-Eu(K) (Cisbio Bioassays Cat #61KA2KAH; 0.75 nM FAC**)+Streptavidin XL665 (Cisbio Bioassays Cat #610SAXLB; 25 nM FAC**) in HTRF detection buffer (Cisbio Bioassays Cat #62SDBRDF). The mixture was incubated for 30 minutes at room temperature before 340 nm excitation and measurement of dual emission at 620 nm and 665 run. *FAC: final assay concentration calculated based on 10 μl of the assay buffer**FAC: final assay concentration calculated based on 20 μl of the detection buffer
The raw data (a 665 nm and a 620 nm reading from each well) for individual assay plates were analyzed. The ratio of emissions was calculated using the following calculation: Ratio=(665 nm emission/620 nm emission)×10000. […] Compound IC50 values were calculated from graphs of % inhibition plotted against compound concentration, using a four parameter curve fit. [Results]

[1] = Metabolic Stability in Human Liver Microsomes; assay type: in vitro ADME
Procedure: Metabolic Stability in Human Liver Microsomes
Human liver microsome (BD Gentest Corporation, Cat No. #452161) incubations were conducted in duplicate in 96-well plates. Each well contains 40 μL of 0.1 M potassium phosphate buffer (pH 7.4), 4.125 mM MgCl2, 0.625 mg/mL liver microsomes, and test compound (1.25 μM). After 5-min preincubation at 37° C., 10 uL of 5.0 mM NADPH in 0.1M potassium phosphate buffer was added to initiate the enzymatic reaction. The final component concentrations are 0.1M potassium phosphate buffer (pH 7.4), 1.0 mM NADPH, 3.3 mM MgCl2, 0.5 mg/mL liver microsomes, and test compound (1.0 μM). Reactions were terminated at 0 and 60 min by adding 200 μL of ice-cold acetonitrile containing internal standard.
LC-MS/MS analysis was conducted as specified below.
The remaining at 60 min (%) of test compound was calculated from the peak area ratio (test compound/internal standard) of samples collected 0 and 60 min after the start of the reaction according to the formula described below. Remaining at 60 min (%)=peak area ratio of sample collected at 60 min/peak area ratio of sample collected at 0 min×100 [Results]

[2] = 0.5 mg/mL liver microsomes, 1.0 μM test compound, 1.0 mM NADPH, 37° C., 60 min

Sequence of KDM5A (P29375 whole entry): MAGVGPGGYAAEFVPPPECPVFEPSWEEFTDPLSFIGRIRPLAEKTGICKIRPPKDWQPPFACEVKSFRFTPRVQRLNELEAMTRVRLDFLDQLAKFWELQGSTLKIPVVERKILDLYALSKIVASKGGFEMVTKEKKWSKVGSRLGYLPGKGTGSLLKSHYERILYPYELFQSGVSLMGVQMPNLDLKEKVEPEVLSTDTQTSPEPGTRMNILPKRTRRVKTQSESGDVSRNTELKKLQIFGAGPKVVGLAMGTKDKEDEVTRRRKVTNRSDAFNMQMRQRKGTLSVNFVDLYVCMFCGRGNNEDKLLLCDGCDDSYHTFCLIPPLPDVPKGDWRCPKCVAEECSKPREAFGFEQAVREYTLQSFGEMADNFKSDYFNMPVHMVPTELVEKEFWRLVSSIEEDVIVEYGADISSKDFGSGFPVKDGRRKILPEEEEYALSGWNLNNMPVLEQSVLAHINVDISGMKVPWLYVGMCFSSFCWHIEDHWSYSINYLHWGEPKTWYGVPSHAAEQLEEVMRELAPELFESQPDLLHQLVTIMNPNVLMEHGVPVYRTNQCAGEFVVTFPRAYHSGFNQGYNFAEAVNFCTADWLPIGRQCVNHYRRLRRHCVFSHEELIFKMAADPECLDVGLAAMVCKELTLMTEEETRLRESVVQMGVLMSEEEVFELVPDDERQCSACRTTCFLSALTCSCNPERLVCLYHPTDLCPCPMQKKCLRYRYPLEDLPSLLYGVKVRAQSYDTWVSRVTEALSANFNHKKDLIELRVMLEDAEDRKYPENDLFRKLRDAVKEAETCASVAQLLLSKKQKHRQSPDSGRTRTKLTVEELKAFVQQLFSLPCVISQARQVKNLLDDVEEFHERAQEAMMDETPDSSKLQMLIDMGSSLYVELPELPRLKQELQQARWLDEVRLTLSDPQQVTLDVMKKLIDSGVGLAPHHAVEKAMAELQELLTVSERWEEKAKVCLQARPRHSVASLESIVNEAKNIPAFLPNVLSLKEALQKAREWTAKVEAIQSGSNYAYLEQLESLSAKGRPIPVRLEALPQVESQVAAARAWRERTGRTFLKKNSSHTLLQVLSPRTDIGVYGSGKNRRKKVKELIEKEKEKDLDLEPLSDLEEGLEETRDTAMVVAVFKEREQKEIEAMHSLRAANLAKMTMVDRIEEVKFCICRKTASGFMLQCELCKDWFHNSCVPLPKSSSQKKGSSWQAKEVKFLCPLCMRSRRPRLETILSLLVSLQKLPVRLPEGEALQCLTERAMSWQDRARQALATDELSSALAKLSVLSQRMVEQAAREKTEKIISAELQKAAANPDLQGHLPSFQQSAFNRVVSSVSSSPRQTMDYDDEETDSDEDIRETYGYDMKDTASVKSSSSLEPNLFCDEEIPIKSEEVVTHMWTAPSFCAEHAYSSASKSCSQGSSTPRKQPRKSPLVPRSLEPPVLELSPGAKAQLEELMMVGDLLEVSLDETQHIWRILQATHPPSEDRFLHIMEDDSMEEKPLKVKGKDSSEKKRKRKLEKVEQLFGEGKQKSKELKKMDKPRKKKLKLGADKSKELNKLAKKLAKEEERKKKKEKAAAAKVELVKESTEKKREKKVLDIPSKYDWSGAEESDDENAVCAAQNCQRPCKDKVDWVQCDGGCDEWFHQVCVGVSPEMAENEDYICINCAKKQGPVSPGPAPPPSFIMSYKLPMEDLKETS

CC(n1cnc(C(=O)N2C[C@@H]3C(C4=NOC(C)(C)C4)[C@@H]3C2)c1)C(F)(F)F (stereo partly drawn) [Example 9, [(1R,5S,6r)-6-(5,5-dimethyl-4,5-dihydro-1,2-oxazol-3-yl)-3-azabicyclo[3.1.0]hex-3-yl][1-(1,1,1-trifluoropropan-2-yl)-1H-imidazol-4-yl]methanone]
IC50 (KDM5A): 400 nM | Metabolic stability in human liver microsomes (% remaining at 60 min) ([1]; human, microsomes, 1 h): 93%

C[C@@H](c1ccccc1C#N)n1cnc(C(=O)N2C[C@@H]3[C@H](C2)[C@H]3C2=NOC(C)(C)C2)c1 [Example 22, 2-[(1S)-1-(4-{[(1R,5S,6S)-6-(5,5-dimethyl-4,5-dihydro-1,2-oxazol-3-yl)-3-azabicyclo[3.1.0]hex-3-yl]carbonyl}-1H-imidazol-1-yl)ethyl]benzonitrile]
IC50 (KDM5A): 400 nM

C[C@@H](c1ccc(C#N)cc1)n1cnc(C(=O)N2C[C@@H]3[C@H](C2)[C@H]3C2=NOC(C)(C)C2)c1 [Example 24, 4-[(1S)-1-(4-{[(1R,5S,6S)-6-(5,5-dimethyl-4,5-dihydro-1,2-oxazol-3-yl)-3-azabicyclo[3.1.0]hex-3-yl]carbonyl}-1H-imidazol-1-yl)ethyl]benzonitrile]
IC50 (KDM5A): 200 nM | Metabolic stability in human liver microsomes (% remaining at 60 min) ([1]; human, microsomes, 1 h): 101%

C[C@@H](c1nccs1)n1cnc(C(=O)N2C[C@@H]3[C@H](C2)[C@H]3C2=NOC(C)(C)C2)c1 [Example 27, [(1R,5S,6S)-6-(5,5-dimethyl-4,5-dihydro-1,2-oxazol-3-yl)-3-azabicyclo[3.1.0]hex-3-yl]{1-[(1S)-1-(1,3-thiazol-2-yl)ethyl]-1H-imidazol-4-yl}methanone]
IC50 (KDM5A): 1000 nM | Metabolic stability in human liver microsomes (% remaining at 60 min) ([1]; human, microsomes, 1 h): 97%

CC(C)n1cnc(C(=O)N2C[C@@H]3C(C4=NOC(C)(C(F)F)C4)[C@@H]3C2)c1 (stereo partly drawn) [Example 40, {(1R,5S,6r)-6-[5-(difluoromethyl)-5-methyl-4,5-dihydro-1,2-oxazol-3-yl]-3-azabicyclo[3.1.0]hex-3-yl}(1-isopropyl-1H-imidazol-4-yl)methanone]
IC50 (KDM5A): 200 nM | Metabolic stability in human liver microsomes (% remaining at 60 min) [1, 2]: 103%

Cc1onc([C@H]2[C@@H]3CN(C(=O)c4cn(C(C)C)cn4)C[C@@H]32)c1-c1ccccc1 [Example 55, (1-isopropyl-1H-imidazol-4-yl)[(1R,5S,6r)-6-(5-methyl-4-phenyl-1,2-oxazol-3-yl)-3-azabicyclo[3.1.0]hex-3-yl]methanone]
IC50 (KDM5A): 20 nM

Cc1cc([C@H]2[C@@H]3CN(C(=O)c4cn(C(C)C)cn4)C[C@@H]32)no1 [Example 56, (1-isopropyl-1H-imidazol-4-yl)[(1R,5S,6r)-6-(5-methyl-1,2-oxazol-3-yl)-3-azabicyclo[3.1.0]hex-3-yl]methanone]
IC50 (KDM5A): 200 nM

CC(C)n1cnc(C(=O)N2C[C@@H]3[C@H](C2)[C@H]3C2=NOC(C)(C)N2C)c1 [Example 59, (1-isopropyl-1H-imidazol-4-yl)[(1R,5S,6r)-6-(4,5,5-trimethyl-4,5-dihydro-1,2,4-oxadiazol-3-yl)-3-azabicyclo[3.1.0]hex-3-yl]methanone]
IC50 (KDM5A): 20 nM | Metabolic stability in human liver microsomes (% remaining at 60 min) ([1]; human, microsomes, 1 h): 100%

CCN1C([C@H]2[C@@H]3CN(C(=O)c4cn(C(C)C)cn4)C[C@@H]32)=NOC1(C)C [Example 60, [(1R,5S,6r)-6-(4-ethyl-5,5-dimethyl-4,5-dihydro-1,2,4-oxadiazol-3-yl)-3-azabicyclo[3.1.0]hex-3-yl](1-isopropyl-1H-imidazol-4-yl)methanone]
IC50 (KDM5A): 200 nM | Metabolic stability in human liver microsomes (% remaining at 60 min) ([1]; human, microsomes, 1 h): 102%

CC(C)n1cnc(C(=O)N2C[C@@H]3[C@H](C2)[C@H]3c2nnn3ccccc23)c1 [Example 62, (1-isopropyl-1H-imidazol-4-yl)[(1R,5S,6r)-6-([1,2,3]triazolo[1,5-a]pyridin-3-yl)-3-azabicyclo[3.1.0]hex-3-yl]methanone]
IC50 (KDM5A): 10 nM | Metabolic stability in human liver microsomes (% remaining at 60 min) ([1]; human, microsomes, 1 h): 83%

CC(C)n1cnc(C(=O)N2C[C@@H]3[C@H](C2)[C@H]3c2nnn[nH]2)c1 [Example 63, (1-isopropyl-1H-imidazol-4-yl)[(1R,5S,6r)-6-(1H-tetrazol-5-yl)-3-azabicyclo[3.1.0]hex-3-yl]methanone]
IC50 (KDM5A): 10 nM

CC(C)n1cnc(C(=O)N2C[C@@H]3[C@H](C2)[C@H]3C(=O)NC(C)(C)C)c1 [Example 65, (1R,5S,6r)-N-tert-butyl-3-[1-(propan-2-yl)-1H-imidazole-4-carbonyl]-3-azabicyclo[3.1.0]hexane-6-carboxamide]
IC50 (KDM5A): 20 nM | Metabolic stability in human liver microsomes (% remaining at 60 min) [1, 2]: 93%

CC(C)n1cnc(C(=O)N2C[C@@H]3[C@H](C2)[C@H]3C(=O)N(C)C(C)(C)C)c1 [Example 66, (1R,5S,6r)-N-tert-butyl-N-methyl-3-[1-(propan-2-yl)-1H-imidazole-4-carbonyl]-3-azabicyclo[3.1.0]hexane-6-carboxamide]
IC50 (KDM5A): 30 nM | Metabolic stability in human liver microsomes (% remaining at 60 min) [1, 2]: 89%

CC(C)n1cnc(C(=O)N2C[C@@H]3[C@H](C2)[C@H]3C(=O)N(C)C2(C#N)CC2)c1 [Example 69, (1R,5S,6r)-N-(1-cyanocyclopropyl)-N-methyl-3-[1-(propan-2-yl)-1H-imidazole-4-carbonyl]-3-azabicyclo[3.1.0]hexane-6-carboxamide]
IC50 (KDM5A): 200 nM | Metabolic stability in human liver microsomes (% remaining at 60 min) [1, 2]: 89%

CC(C)n1cnc(C(=O)N2C[C@@H]3[C@H](C2)[C@H]3C(=O)c2cccs2)c1 [Example 76, (1-isopropyl-1H-imidazol-4-yl)[(1R,5S,6r)-6-(2-thienylcarbonyl)-3-azabicyclo[3.1.0]hex-3-yl]methanone]
IC50 (KDM5A): 60 nM

Cc1csc(C(=O)[C@H]2[C@@H]3CN(C(=O)c4cn(C(C)C)cn4)C[C@@H]32)c1 [Example 77, (1-isopropyl-1H-imidazol-4-yl){(1R,5S,6r)-6-[(4-methyl-2-thienyl)carbonyl]-3-azabicyclo[3.1.0]hex-3-yl}methanone]
IC50 (KDM5A): 20 nM

Cc1cc([C@H]2[C@@H]3CN(C(=O)c4cc(C(C)C)[nH]n4)C[C@@H]32)no1 [Example 103, (5-isopropyl-1H-pyrazol-3-yl)[(1R,5S,6r)-6-(5-methyl-1,2-oxazol-3-yl)-3-azabicyclo[3.1.0]hex-3-yl]methanone]
IC50 (KDM5A): 200 nM

Cc1c([C@H]2[C@@H]3CN(C(=O)c4cc(C(C)C)[nH]n4)C[C@@H]32)noc1C(F)F [Example 104, {(1R,5S,6r)-6-[5-(difluoromethyl)-4-methyl-1,2-oxazol-3-yl]-3-azabicyclo[3.1.0]hex-3-yl}(5-isopropyl-1H-pyrazol-3-yl)methanone]
IC50 (KDM5A): 40 nM

Cc1onc([C@H]2[C@@H]3CN(C(=O)c4cc(C(C)C)[nH]n4)C[C@@H]32)c1-c1ccccn1 [Example 106, (5-isopropyl-1H-pyrazol-3-yl){(1R,5S,6r)-6-[5-methyl-4-(2-pyridinyl)-1,2-oxazol-3-yl]-3-azabicyclo[3.1.0]hex-3-yl}methanone]
IC50 (KDM5A): 40 nM

CC(C)c1cc(C(=O)N2C[C@@H]3[C@H](C2)[C@H]3c2nnn3ccccc23)n[nH]1 [Example 132, (5-isopropyl-1H-pyrazol-3-yl)[(1R,5S,6r)-6-([1,2,3]triazolo[1,5-a]pyridin-3-yl)-3-azabicyclo[3.1.0]hex-3-yl]methanone]
IC50 (KDM5A): 40 nM

CC(C)c1cc(C(=O)N2C[C@@H]3[C@H](C2)[C@H]3c2nnn[nH]2)n[nH]1 [Example 134, (5-isopropyl-1H-pyrazol-3-yl)[(1R,5S,6r)-6-(1H-tetrazol-5-yl)-3-azabicyclo[3.1.0]hex-3-yl]methanone]
IC50 (KDM5A): 4 nM

CC(C)c1cc(C(=O)N2C[C@@H]3[C@H](C2)[C@H]3C(=O)N(C)C2(C)CC2)n[nH]1 [Example 138, (1R,5S,6r)-N-methyl-N-(1-methylcyclopropyl)-3-[5-(propan-2-yl)-1H-pyrazole-3-carbonyl]-3-azabicyclo[3.1.0]hexane-6-carboxamide]
IC50 (KDM5A): 800 nM
